According to patent US12655116B2, “Substituted isophthalic acid diamides” (Bayer Aktiengesellschaft, priority 2020, dated 2026):

How the values were obtained:
ABUTH [1] = assay: Pre-emergence herbicidal action against ABUTH; assay type: in vivo, Abutilon theophrasti; settings: Abutilon theophrasti, 504 h
Outline: (§1)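 Sandy loam pots, seeds covered with soil, then surface-treated with WP or EC formulations at 600–800 l/ha water plus 0.2% wetting agent. Greenhouse, 3 weeks. Percent damage vs untreated controls.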

ALOMY [2] = assay: Pre-emergence herbicidal action against ALOMY; assay type: in vivo, Alopecurus myosuroides; settings: Alopecurus myosuroides, 504 h; 80 g/ha, pre-emergence, scored visually after 3 weeks vs untreated controls (100% = plants have died, 0% = like control plants)
Outline: as §1

AMARE [3] = assay: Pre-emergence herbicidal action against AMARE; assay type: in vivo, Amaranthus retroflexus; settings: Amaranthus retroflexus, 504 h, scored visually after 3 weeks vs untreated controls, 100% = plants have died, 0% = like control plants
Outline: as §1

AVEFA [4] = assay: Pre-emergence herbicidal action against AVEFA; assay type: in vivo, Avena fatua; settings: Avena fatua, 504 h; 80 g/ha, pre-emergence
Outline: as §1

ECHCG [5] = assay: Pre-emergence herbicidal action against ECHCG; assay type: in vivo, Echinochloa crus-galli; settings: Echinochloa crus-galli, 504 h
Outline: as §1

LOLRI = assay: Pre-emergence herbicidal action against LOLRI; assay type: in vivo, Lolium rigidum; settings: Lolium rigidum, 504 h, 80 g/ha
Outline: as §1

MATIN [6] = assay: Pre-emergence herbicidal action against MATIN; assay type: in vivo, Matricaria inodora; settings: Tripleurospermum inodorum, 504 h
Outline: as §1

PHBPU [7] = assay: Pre-emergence herbicidal action against PHBPU; assay type: in vivo, Pharbitis purpurea; settings: Ipomoea purpurea, 504 h
Outline: as §1

POLCO [8] = assay: Pre-emergence herbicidal action against POLCO; assay type: in vivo, Polygonum convolvulus; settings: Fallopia convolvulus, 504 h, dosage 80 g/ha
Outline: as §1

SETVI [9] = assay: Pre-emergence herbicidal action against SETVI; assay type: in vivo, Setaria viridis; settings: Setaria viridis, 504 h, dosage 80 g/ha
Outline: as §1

VERPE [10] = assay: Pre-emergence herbicidal action against VERPE; assay type: in vivo, Veronica persica; settings: Veronica persica, 504 h
Outline: as §1

VIOTR [11] = assay: Pre-emergence herbicidal action against VIOTR; assay type: in vivo, Viola tricolor; settings: Viola tricolor, 504 h
Outline: as §1

DIGSA [12] = assay: Pre-emergence herbicidal action against DIGSA; assay type: in vivo, Digitaria sanguinalis; settings: Digitaria sanguinalis, 504 h
Outline: as §1

ABUTH [13] = assay: Post-emergence herbicidal action against ABUTH; assay type: in vivo, Abutilon theophrasti; settings: Abutilon theophrasti, 504 h, visual assessment about 3 weeks after treatment vs untreated controls
Outline: (§2)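 Herbicidal action is a visual percentage rating (0% = as untreated control, 100% = plants dead) made roughly 3 weeks after treatment. Plants were grown in sandy loam in the greenhouse and treated at the one-leaf stage, 2 to 3 weeks post-sowing. Treatment was a foliar spray of wettable-powder or emulsion-concentrate formulations at 600 to 800 l/ha water plus 0.2% wetting agent.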

ALOMY [14] = assay: Post-emergence herbicidal action against ALOMY; assay type: in vivo, Alopecurus myosuroides; settings: Alopecurus myosuroides, 504 h, visual assessment about 3 weeks after treatment vs untreated controls
Outline: as §2

AMARE [15] = assay: Post-emergence herbicidal action against AMARE; assay type: in vivo, Amaranthus retroflexus; settings: Amaranthus retroflexus, 504 h, 20 g/ha, visual assessment about 3 weeks after treatment, 100% = plants have died, 0% = like control plants
Outline: as §2

AVEFA [16] = assay: Post-emergence herbicidal action against AVEFA; assay type: in vivo, Avena fatua; settings: Avena fatua, 504 h, 20 g/ha, visual assessment about 3 weeks after treatment, 100% = plants have died, 0% = like control plants
Outline: as §2

ECHCG [17] = assay: Post-emergence herbicidal action against ECHCG; assay type: in vivo, Echinochloa crus-galli; settings: Echinochloa crus-galli, 504 h
Outline: as §2

MATIN [18] = assay: Post-emergence herbicidal action against MATIN; assay type: in vivo, Matricaria inodora; settings: Tripleurospermum inodorum, 504 h
Outline: as §2

PHBPU [19] = assay: Post-emergence herbicidal action against PHBPU; assay type: in vivo, Pharbitis purpurea; settings: Ipomoea purpurea, 504 h, dosage 20 g/ha
Outline: as §2

POLCO [20] = assay: Post-emergence herbicidal action against POLCO; assay type: in vivo, Polygonum convolvulus; settings: Fallopia convolvulus, 504 h, dosage 20 g/ha
Outline: as §2

SETVI [21] = assay: Post-emergence herbicidal action against SETVI; assay type: in vivo, Setaria viridis; settings: Setaria viridis, 504 h, dosage 20 g/ha
Outline: as §2

VERPE [22] = assay: Post-emergence herbicidal action against VERPE; assay type: in vivo, Veronica persica; settings: Veronica persica, 504 h
Outline: as §2

VIOTR [23] = assay: Post-emergence herbicidal action against VIOTR; assay type: in vivo, Viola tricolor; settings: Viola tricolor, 504 h, 20 g/ha
Outline: as §2

DIGSA [24] = assay: Post-emergence herbicidal action against DIGSA; assay type: in vivo, Digitaria sanguinalis; settings: Digitaria sanguinalis, 504 h
Outline: as §2

CCc1c(C(=O)Nc2nnnn2C)ccc(C(F)(F)F)c1C(=O)NC [Example 1-271]
pest or weed control at 80 g/ha (ABUTH [1]; 80 g/ha, scored visually after 3 weeks vs untreated controls (100% = plants have died, 0% = like control plants)): 100% | pest or weed control at 20 g/ha (ABUTH [1]; dosage 20 g/ha, scored visually after 3 weeks vs untreated controls, 100% = plants have died, 0% = like control plants, read-out: Pre-emergence action against ABUTH (herbicidal activity in percent)): 100% | pest or weed control at 80 g/ha (ALOMY [2]): 90% | pest or weed control at 20 g/ha (AMARE [3]; 20 g/ha): 100% | pest or weed control at 80 g/ha (AMARE [3]; 80 g/ha): 100% | pest or weed control at 80 g/ha (AVEFA [4]): 80% | pest or weed control at 20 g/ha (ECHCG [5]; 20 g/ha): 90% | pest or weed control at 80 g/ha (ECHCG [5]; 80 g/ha): 100% | pest or weed control at 80 g/ha (LOLRI): 100% | pest or weed control at 20 g/ha (MATIN [6]; dosage 20 g/ha): 100% | pest or weed control at 80 g/ha (MATIN [6]; dosage 80 g/ha): 100% | pest or weed control at 20 g/ha (PHBPU [7]; dosage 20 g/ha): 80% | pest or weed control at 80 g/ha (PHBPU [7]; dosage 80 g/ha): 90% | pest or weed control at 80 g/ha (POLCO [8]): 80% | pest or weed control at 80 g/ha (SETVI [9]): 100% | pest or weed control at 20 g/ha (VERPE [10]; dosage 20 g/ha): 90% | pest or weed control at 80 g/ha (VERPE [10]; dosage 80 g/ha): 100% | pest or weed control at 20 g/ha (VIOTR [11]; dosage 20 g/ha): 100% | pest or weed control at 80 g/ha (VIOTR [11]; dosage 80 g/ha): 100% | pest or weed control at 20 g/ha (DIGSA [12]; dosage 20 g/ha): 100% | pest or weed control at 80 g/ha (DIGSA [12]; dosage 80 g/ha): 100% | pest or weed control at 5 g/ha (ABUTH [13]; dosage 5 g/ha): 80% | pest or weed control at 20 g/ha (ABUTH [13]; dosage 20 g/ha): 90% | pest or weed control at 5 g/ha (ALOMY [14]; dosage 5 g/ha): 80% | pest or weed control at 20 g/ha (ALOMY [14]; dosage 20 g/ha): 90% | pest or weed control at 20 g/ha (AMARE [15]): 90% | pest or weed control at 20 g/ha (AVEFA [16]): 80% | pest or weed control at 5 g/ha (ECHCG [17]; dosage 5 g/ha): 80% | pest or weed control at 20 g/ha (ECHCG [17]; dosage 20 g/ha): 80% | pest or weed control at 5 g/ha (MATIN [18]; dosage 5 g/ha): 90% | pest or weed control at 20 g/ha (MATIN [18]; dosage 20 g/ha): 90% | pest or weed control at 20 g/ha (PHBPU [19]): 90% | pest or weed control at 20 g/ha (POLCO [20]): 80% | pest or weed control at 20 g/ha (SETVI [21]): 80% | pest or weed control at 5 g/ha (VERPE [22]; 5 g/ha): 80% | pest or weed control at 20 g/ha (VERPE [22]; 20 g/ha): 90% | pest or weed control at 20 g/ha (VIOTR [23]): 90% | pest or weed control at 5 g/ha (DIGSA [24]; 5 g/ha): 90% | pest or weed control at 20 g/ha (DIGSA [24]; 20 g/ha): 100%
